Legend:
[1] = Trypan blue exclusion, PBMCs; assay type: cell-based, human; settings: human, peripheral blood mononuclear cells (PBMCs)
Protocol: To examine the effect of compounds on viral replication, studies were carried out in peripheral blood mononuclear cells (PBMCs). PBMCs were isolated from healthy (HIV-uninfected) volunteer blood donors as described by Dobson-Belaire et al.. Informed consent was obtained from participants in accordance with the guidelines for conduct of clinical research at the University of Toronto and St. Michael’s Hospital, Toronto, Ontario, Canada. Stored PBMCs were thawed, washed with RPMI 1640 complete medium and cultured in RPMI 1640 complete medium containing 2 μg/mL of PHA-L (Sigma-Aldrich) and 20 U/mL of IL-2 (BD Pharmingen) for 72 h. Subsequently, cells were counted and a portion of the cells was separated to another tube for uninfected control treatments. The remaining PBMCs were resuspended in media containing HIV-1 BaL at a multiplicity of infection (MOI) of approximately 0.01 and infected by spinoculation, following which cells were washed twice with room temperature RPMI 1640 complete medium and resuspended to a concentration of 5 × 10^5 cells/mL in complete RPMI 1640 containing 20 U/mL of IL-2. Compounds were added to infected PBMCs or uninfected control PBMCs. Azidothymidine (AZT, Sigma-Aldrich) was used as control treatment at a final concentration of 3.74 μM. On day 4 post infection, culture medium was replenished with the compounds and IL-2 in fresh complete RPMI 1640. On days 2, 4, 6 and 8 post infection, culture supernatant was harvested, virus lysed by adjusting to 1% TritonX-100 and stored at −20 °C for p24 antigen ELISA. A fraction of the culture was harvested to assess percent cell viability by trypan blue exclusion using Glasstic slides (Kova). Relative percent cell viability in compound treated samples versus DMSO-control treated samples was calculated as follows: (total viable cells/total cells)compound/(total viable cells/total cells)DMSO.

[2] = tested on: HIV-1 clade A (N54), clade B (IIIB), PRI-, RTI- and INI-resistant strains; assay: HIV-1 replication in CEM-GXR cells (GFP positive cells, flow cytometry); assay type: cell-based; settings: for HIV-1 replication of all viruses tested: clade A N54, clade B IIIB, PRI-, RTI-, INI-resistant strains; for IC50: Human immunodeficiency virus 1, IIIB, CEM-GXR
Text: Effects of compound treatment on HIV-1 gene expression were initially assessed in the context of HeLa rtTA HIV∆Mls cells stably transduced with an inducible Tet-On HIV-1 system (as previously described). The provirus was modified by either deletion in the reverse transcriptase and integrase region of the pol gene by an MlsI restriction digest (HeLa rtTA HIV∆Mls cell line) or GFP fusion to Gag, deleting the PR and RT-coding regions (HeLa rtTA HIVGagGFP cell line). […] All cell lines were maintained in Iscove’s modified Delbecco’s medium (IMDM; Wisent) supplemented with 10% (vol/vol) fetal bovine serum (FBS, Wisent), 1% penicillin/streptomycin (P/S, Wisent) and 0.2% Amphotericin B (Wisent). Indicator cell line CEM-GXR was obtained from Dr. Mark Brockman (Simon Fraser University). The RTI-resistant virus (E00443) was obtained from Dr. Zabrina Brumme (Simon Fraser University). The HIV-1 clade A (97USSN54 (N54)), HIV-1 clade B (IIIB), integrase inhibitor resistant virus (11845), protease inhibitor resistant virus (2948) were obtained through the NIH AIDS Research and Reference reagent program, Division of AIDS, NIAID, NIH).
To assess the activity of compounds against HIV-1 strains having resistance to various ART drugs, assays were performed in the context of CEM-GXR cells. These cells express CD4, CXCR4, and coreceptor, CCR5 as well as an exogenous Tat-driven LTR-GFP expression cassette. Cultures were infected with different HIV-1 strains of interest, differing on their subtypes (A and B), and resistance to three major drug targets (reverse transcriptase, protease, and integrase). The culture contains serial dilutions of the molecule in the final concentrations from 0.156 to 5 μM for 833; 725 nM to 46.87 μM for 791; 1.95 to 62.5 μM for 892. Antiviral activity was evaluated in the assay by measuring inhibition of HIV-1 spread in a coculture of CEM-GXR cells containing 1% of HIV-1 infected (GFP positive) cells using flow cytometric analysis (GuavaSoft 2.2 software, Guava HT8, Millipore). To estimate the viable cell counts, the gate in a flow cytometer (Guava HT8) was set to cover 95% of the freshly passaged uninfected CEM-GXR cell or using ViaCount™. The same parameter was employed to gate viable cells in the inhibition assay and the number of gated cells was obtained by GuavaSoft 2.2 software. For assays using ViaCount™, sample acquisition and data analysis were performed with the selection of EasyFit analysis feature using the ViaCount™ software module.

HIV-1 Tat = assay: Tat protein decay in the presence of cycloheximide; assay type: cell-based; settings: cycloheximide 10 µg/ml (Figure S4)
Protocol: To assess effect of compounds on HIV-1 Tat stability, the decay of HIV-1 Tat levels was compared between DMSO-treated and compound-treated protein lysates in the presence of cycloheximide. In the first set of experiments, HIV-1 gene expression was induced with doxycylin (dox) for 24 h then 10 μg/mL cycloheximide was added to block new protein synthesis in combination with either DMSO or the compounds. Cells were harvested every 2 h and Tat protein levels measured by western blot. Quantification of the relative intensity of the detected bands was performed using ImageLab software (BioRad) and normalized to corresponding bands of the loading control (GAPDH) from at least three independent experiments. To determine whether the compounds’ effect on HIV-1 gene expression could be reversed by inhibition of the proteasome, compound treatment assay was performed as previously described with the addition of 10 μM MG132 (Sigma-Aldrich) to compound-treated cells 8 h prior to harvesting. Equal amounts of protein were run on 13 or 14% gels by SDS-PAGE, blotted and probed with antibodies for Tat and GAPDH. Quantification of the relative intensity of the detected bands was performed using ImageLab software (BioRad) and normalized to corresponding bands of the loading control (GAPDH) from at least three independent experiments.

Row | Compound | CC50 [1] [µM] | HIV-1 replication of all viruses tested [2] | half-life of HIV-1 Tat relative to DMSO (HIV-1 Tat) | IC50 [2] [µM] | viability at 6 days post infection ([1]; PBMCs, 6 days post infection, concentrations up to 7.5 µM, read-out: cell viability) [%]
1 | COc1ccc(C=NNC(=O)c2ccccc2O)cc1O [Compound 892, 2-hydroxy-N′-(3-hydroxy-4-methoxybenzylidene)benzohydrazide] | 4.5 | only modest inhibitory activity | do not alter |  | 
2 | O=C(NC(=S)NNC(=O)c1ccccc1O)c1ccc(-c2ccccc2)cc1 [Compound 833, N-([2-(2-hydroxybenzoyl)hydrazino]carbonothioyl}-4-biphenylcarboxamide] | 3 | significant reductions | do not alter | 1 | 
3 | Cc1cc(NCc2cccnc2)n2ncc(-c3ccc(Cl)cc3)c2n1 [Compound 791, 3-(4-chlorophenyl)-5-methyl-N-(3-pyridinylmethyl)pyrazolo[1,5-a]pyrimidin-7-amine] | > 10 | significant reductions | do not alter | 4.5 | > 80

Source: paper PMC5267425, “Identification of small molecule modulators of HIV-1 Tat and Rev protein accumulation” (Retrovirology, 2017)
